The values below come from US9527859B2, “Amidopyridine derivative and use thereof” (Mitsubishi Tanabe Pharma Corporation, priority 2012, dated 2016).

Structures are written as SMILES.

This experiment deals with production of IL-17 in mouse splenocytes stimulated by recombinant mouse interleukin-23. The experiment can be described thus: Production of IL-17 induced when mouse splenocytes were stimulated by rm-IL-23 (ELISA). Type of experiment: cell-based. Conditions: Splenocyte, inhibition of IL-17 production, rm-IL-23 1 nmol/L, 72 hours. The protocol: Effect on Production of IL-17 Induced when Mouse Splenocytes were Stimulated by Recombinant Mouse Interleukin-23 (rm-IL-23)
RPMI1640 media (Sigma-Aldrich) were used as a medium, to which 50 units/mL penicillin G potassium/50 μg/mL streptomycin (Gibco) and […] 2-mercaptoethanol (Sigma-Aldrich) were added, and then thereto was added 10% of fetal calf serum (FCS; Cell Culture Technology) which was treated at 56° C. for 30 minutes to be inactivated, and the mixture was used in the Test. The test compound was dissolved in dimethylsulfoxide and then diluted with 10% FCS-containing RPMI1640 medium to a desired concentration to be used. The spleens were aseptically taken out from 6 to 7 week-old male DBA/1J mice (Charles River Japan, Inc.) and a single cell suspension of splenocytes was prepared, which was hemolyzed by hypotonic treatment with a mixed solution of 0.83% aqueous solution of ammonium chloride and Tris-HCl buffer of pH 7.65 (9:1). A cell suspension prepared by using 10% FCS-containing RPMI1640 medium was added to a flat-bottomed 96 well microtestplate (Coaster) at 2×10^5 cells/well. Thereto were added test compounds and rm-IL-23 (R&D systems) were diluted with a medium to 1 to 1,000 nmol/L and 1 nmol/L of the final concentration, respectively, and the mixture was cultured at 37° C., 5% carbon dioxide and 95% air for 72 hours. After completion of the culture, culture supernatant was sampled and production amounts of IL-17 therein were determined by ELISA method. After sampling the supernatant, WST-8 (Seikagaku Corporation) was added at 10 μl/well and cultured at 37° C., 5% carbon dioxide and 95% air for 4 hours. Then, absorbance (O.D.: Optical Density) at 450 nm was measured by a microplate reader and the value was adopted as an index of cell survivability. An inhibition rate was calculated according to the following formula on the basis of an average of production amounts of IL-17 and O.D. values of the well containing a test compound of each concentration. Inhibition (%)=(1−(Average value of well with addition of test compound)/(Average value of well without addition of test compound))×100
Based on the dose-response curve obtained by plotting the inhibition rate in the longitudinal axis and the concentration in the horizontal axis, the concentration of the compound which inhibits the level to 50% of the value of the control group (IC50) (nmol/L) was determined by linear regression analysis.
(An ELISA detects its analyte on a solid surface through an enzyme-linked reagent.)

As usually defined, the IC50 is the midpoint of a concentration-inhibition curve. On to `Cc1c(C(=O)Nc2cnc(N3CCC(CCO)CC3)c(C#N)c2)cnn1-c1ccc(Cl)cc1` [Example 51, 1-(4-chlorophenyl)-N-{5-cyano-6-[4-(2-hydroxyethyl)piperidin-1-yl]pyridin-3-yl}-5-methyl-1H-pyrazole-4-carboxamide], for which the half-inhibitory concentration (IC50) was determined as 53.5 nM.
The value for `CC(=O)OC(C)C1CCN(c2ncc(NC(=O)c3cnn(-c4ccc(C(F)(F)F)cn4)c3C)cc2C)CC1` (stereo not shown) [Example 52, acetic acid {1-[1-(3-methyl-5-{5-methyl-1-[5-(trifluoromethyl)pyridin-2-yl]-1H-pyrazole-4-carboxamide}pyridin-2-yl)piperidin-4-yl]ethyl}ester] was 53.1 nM.
The value for `COC(C)C1CCN(c2ncc(NC(=O)c3cnn(-c4ccc(C(F)(F)F)cn4)c3C)cc2C)CC1` (stereo not shown) [Example 53, N-{6-[4-(1-methoxyethyl)piperidin-1-yl]-5-methylpyridin-3-yl}-5-methyl-1-[5-(trifluoromethyl)pyridin-2-yl]-1H-pyrazole-4-carboxamide] was 51.8 nM; that for `Cc1cc(NC(=O)c2cnn(-c3ccc(F)cc3)c2C)cnc1N1CCC(C(C)(C)O)CC1` [Example 54, 1-(4-fluorophenyl)-N-{6-[4-(1-hydroxy-1-methylethyl)piperidin-1-yl]-5-methylpyridin-3-yl}-5-methyl-1H-pyrazole-4-carboxamide] was 51 nM; that for `Cc1cc(NC(=O)c2cnn(-c3ccc(C(F)(F)F)cn3)c2C)cnc1N1CCC(C(C)O)CC1` (stereo not shown) [Example 55, N-{6-[4-(1-hydroxyethyl)piperidin-1-yl]-5-methylpyridin-3-yl}-5-methyl-1-[5-(trifluoromethyl)pyridin-2-yl]-1H-pyrazole-4-carboxamide] was 49.6 nM.
In the case of `Cc1ccc(-n2ncc(C(=O)Nc3cnc(N4CCC(C(C)(C)O)CC4)c(C)c3)c2C)cc1` [Example 56, N-{6-[4-(1-hydroxy-1-methylethyl)piperidin-1-yl]-5-methylpyridin-3-yl}-5-methyl-1-(4-methylphenyl)-1H-pyrazole-4-carboxamide], the IC50 is 44.4 nM.
The value for `Cc1ccc(-n2ncc(C(=O)Nc3cnc(N4CCC(CC(C)(C)O)CC4)c(C)c3)c2C)nc1` [Example 57, N-{6-[4-(2-hydroxy-2-methylpropyl)piperidin-1-yl]-5-methylpyridin-3-yl}-5-methyl-1-(5-methylpyridin-2-yl)-1H-pyrazole-4-carboxamide] was 36.7 nM.
The value for `Cc1cc(NC(=O)c2cnn(-c3ccc(Cl)cn3)c2C)cnc1N1CCC(C(C)(C)O)CC1` [Example 58, 1-(5-chloropyridin-2-yl)-N-{6-[4-(1-hydroxy-1-methylethyl)piperidin-1-yl]-5-methylpyridin-3-yl}-5-methyl-1H-pyrazole-4-carboxamide] was 33 nM.
The value for `Cc1cc(NC(=O)c2cnn(-c3ncc(Cl)cc3Cl)c2C)cnc1N1CCC(C(C)(C)O)CC1` [Example 59, 1-(3,5-dichloropyridin-2-yl)-N-{6-[4-(1-hydroxy-1-methylethyl)piperidin-1-yl]-5-methylpyridin-3-yl}-5-methyl-1H-pyrazole-4-carboxamide] was 31.8 nM; that for `Cc1cc(NC(=O)c2cnn(-c3ccc(F)cn3)c2C)cnc1N1CCC(CC(C)(C)O)CC1` [Example 60, 1-(5-fluoropyridin-2-yl)-N-{6-[4-(2-hydroxy-2-methylpropyl)piperidin-1-yl]-5-methylpyridin-3-yl}-5-methyl-1H-pyrazole-4-carboxamide] was 30.4 nM; that for `Cc1cc(NC(=O)c2cnn(-c3ccc(C(F)(F)F)cc3)c2C)cnc1N1CCC(C(C)(C)O)CC1` [Example 61, N-{6-[4-(1-hydroxy-1-methylethyl)piperidin-1-yl]-5-methylpyridin-3-yl}-5-methyl-1-[4-(trifluoromethyl)phenyl]-1H-pyrazole-4-carboxamide] was 19.4 nM.
As to `Cc1cc(NC(=O)c2cnn(-c3ccc(C(F)(F)F)cn3)c2C)cnc1N1CCC(C(C)(C)O)CC1` [Example 62, N-{6-[4-(1-hydroxy-1-methylethyl)piperidin-1-yl]-5-methylpyridin-3-yl}-5-methyl-1-[5-(trifluoromethyl)pyridin-2-yl]-1H-pyrazole-4-carboxamide], the IC50 stood at 17 nM.
The value for `Cc1cc(NC(=O)c2cnn(-c3ccc(Cl)cc3)c2C)cnc1N1CCC(C(C)(C)O)CC1` [Example 63, 1-(4-chlorophenyl)-N-{6-[4-(1-hydroxy-1-methylethyl)piperidin-1-yl]-5-methylpyridin-3-yl}-5-methyl-1H-pyrazole-4-carboxamide] was 15.6 nM.
The value for `Cc1cc(NC(=O)c2cnn(-c3ccc(C4CC4)cn3)c2C)cnc1N1CCC(CC(C)(C)O)CC1` [Example 64, 1-(5-cyclopropylpyridin-2-yl)-N-{6-[4-(2-hydroxy-2-methylpropyl)piperidin-1-yl]-5-methylpyridin-3-yl}-5-methyl-1H-pyrazole-4-carboxamide] was 12 nM; that for `Cc1cc(NC(=O)c2cnn(-c3ccc(C(F)(F)F)cn3)c2C)cnc1N1CCC(CC(C)(C)O)CC1` [Example 65, N-{6-[4-(2-hydroxy-2-methylpropyl)piperidin-1-yl]-5-methylpyridin-3-yl}-5-methyl-1-[5-(trifluoromethyl)pyridin-2-yl]-1H-pyrazole-4-carboxamide] was 5.35 nM.
The value for `Cc1c(C(=O)Nc2cnc(N3CCC(=O)CC3)c(C3CC3)c2)cnn1-c1ccc(Cl)cc1` [Example 70, 1-(4-chlorophenyl)-N-[5-cyclopropyl-6-(piperidin-4-on-1-yl)pyridin-3-yl]-5-methyl-1H-pyrazole-4-carboxamide] was 205 nM; that for `Cc1c(C(=O)Nc2cnc(N3CCC(CCO)CC3)c(Cl)c2)cnn1-c1ccc(Cl)cc1` [Example 74, N-{5-chloro-6-[4-(2-hydroxyethyl)piperidin-1-yl]pyridin-3-yl}-1-(4-chlorophenyl)-5-methyl-1H-pyrazole-4-carboxamide] was 87.7 nM; that for `Cc1cc(NC(=O)c2c[nH]c(-c3ccc(C(F)(F)F)cc3)n2)cnc1N1CCC(C(C)(C)O)CC1` [Example 75, N-{6-[4-(1-hydroxy-1-methylethyl)piperidin-1-yl]-5-methylpyridin-3-yl}-2-[4-(trifluoromethyl)phenyl]-1H-imidazole-4-carboxamide] was 109 nM.
Take `Cc1cc(NC(=O)c2cnc(-c3ccc(C(F)(F)F)cc3)n2C)cnc1N1CCC(C(C)(C)O)CC1` [Example 76, N-{6-[4-(1-hydroxy-1-methylethyl)piperidin-1-yl]-5-methylpyridin-3-yl}-3-methyl-2-[4-(trifluoromethyl)phenyl]-3H-imidazole-4-carboxamide]: the IC50 stood at 30.4 nM.
As for `Cc1cc(NC(=O)c2ccc(-c3ccc(Cl)cc3)s2)cnc1N1CCC(C(C)(C)O)CC1` [Example 78, 5-(4-chlorophenyl)-N-{6-[4-(1-hydroxy-1-methylethyl)piperidin-1-yl]-5-methylpyridin-3-yl}thiophene-2-carboxamide], the IC50 was 15.6 nM.
The value for `Cc1cc(NC(=O)c2csc(-c3ccc(Cl)cc3)c2)cnc1N1CCC(C(C)(C)O)CC1` [Example 79, 2-(4-chlorophenyl)-N-{6-[4-(1-hydroxy-1-methylethyl)piperidin-1-yl]-5-methylpyridin-3-yl}thiophene-4-carboxamide] was 43.6 nM.
The value for `Cc1cc(NC(=O)c2cc(-c3ccc(Cl)cc3)cs2)cnc1N1CCC(C(C)(C)O)CC1` [Example 80, 4-(4-chlorophenyl)-N-{6-[4-(1-hydroxy-1-methylethyl)piperidin-1-yl]-5-methylpyridin-3-yl}thiophene-2-carboxamide] was 185 nM; that for `Cc1cc(NC(=O)c2cnc(-c3ccc(Cl)cc3)s2)cnc1N1CCC(C(C)(C)O)CC1` [Example 81, 2-(4-chlorophenyl)-N-{6-[4-(1-hydroxy-1-methylethyl)piperidin-1-yl]-5-methylpyridin-3-yl}thiazole-5-carboxamide] was 66.8 nM.
The value for `Cc1cc(NC(=O)c2csc(-c3ccc(Cl)cc3)n2)cnc1N1CCC(C(C)(C)O)CC1` [Example 82, 2-(4-chlorophenyl)-N-{6-[4-(1-hydroxy-1-methylethyl)piperidin-1-yl]-5-methylpyridin-3-yl}thiazole-4-carboxamide] was 91.1 nM.
Take `Cc1cc(NC(=O)c2cnn(-c3ccc(Cl)cc3)n2)cnc1N1CCC(C(C)(C)O)CC1` [Example 85, 2-(4-chlorophenyl)-N-{6-[4-(1-hydroxy-1-methylethyl)piperidin-1-yl]-5-methylpyridin-3-yl}-2H-[1,2,3]triazole-4-carboxamide]: the IC50 is 67.6 nM.
